{"source": "patent US20160214983A1", "about": "“3,7-DIAZABICYCLO[3.3.1]NONANE CARBOXAMIDES AS ANTITHROMBOTIC AGENTS” (COUNCIL OF SCIENTIFIC & INDUSTRIAL RESEARCH, priority 2013, published 2016)", "key": {"[1]": {"system": "collagen plus epinephrine induced pulmonary thromboembolism", "assay": "Collagen-epinephrine induced pulmonary thromboembolism in mice", "assay_type": "in vivo", "description": "To assess the antithrombotic efficacy of compounds, mice were grouped into vehicle, aspirin and compound treated groups, and each group included ten animals. Pulmonary thromboembolism was induced by injecting a mixture of collagen (150 μg/ml) and adrenaline (50 μg/ml) into the tail vein to achieve final doses of collagen (1.5 mg/kg) and adrenaline (0.5 mg/kg) to induce hind limb paralysis or death.^11, 12 Number of test animals killed or paralyzed were evaluated (death/paralysis were employed as endpoint to evaluate antithrombotic agents). The percent protection was calculated by taking the ratio of number of test animals killed or paralyzed to that of total tested animals. Results have been reported as percentage protection, which represents protection against collagen and epinephrine induced thromboembolism and expressed as;\nPercent Protection=[1−(Ptest/Pcontrol)]×100\nWhere, Ptest is the number of animals paralyzed/dead in test compound-treated group, and Pcontrol is the total number of animals paralyzed/dead in vehicle treated group. The percent protection refers to the number of animals in compound treated group that were prevented from paralysis/death."}, "human platelets [2]": {"system": "human platelets", "assay": "Collagen related peptide (CRP-XL) induced platelet aggregation", "assay_type": "cell-based", "conditions": "up to 300 μM"}, "human plasma": {"system": "human plasma", "assay": "Coagulability of blood by TT, PT and aPTT in human plasma"}, "[3]": {"assay": "Tail bleeding time in mice"}, "human platelets [4]": {"system": "human platelets", "assay": "Arachidonic acid induced platelet aggregation (COX pathway)", "assay_type": "cell-based"}, "[5]": {"system": "ferric chloride induced arterial thrombosis", "assay": "FeCl3 induced carotid artery thrombosis in mice", "assay_type": "in vivo", "description": "Male Swiss albino mice were anesthetized byurethane (1.25 g/kg, i.p.). The carotid artery was carefully dissected and a pulsed Doppler Probe (LDF 100C, BioPac, USA) was placed around it to record the blood flow velocity and patency of the blood vessels. The carotid artery thrombosis was induced by FeCl3 as follows: a square (1×0.5 mm) of Whatman Chromatography paper was immersed in 10% FeCl3 solution for 5 min and placed on the carotid artery as described earlier. (Kurz K D, et al., Thromb Res 1990; 60(4):269-80; Surin W R et al J Pharmacol Toxicol Methods. 2010; 61(3):287-91) Thrombosis was monitored as the reduction in carotid artery blood flow. The time at which the blood-flow velocity was decreased to zero was recorded as the time to occlusion (TTO) of the carotid artery."}, "human platelets [6]": {"system": "human platelets", "assay": "ADP induced platelet aggregation", "assay_type": "cell-based", "conditions": "up to 300 μM"}, "human platelets [7]": {"system": "human platelets", "assay": "TRAP (thrombin mimetic SFLLRN) induced platelet aggregation", "assay_type": "cell-based", "conditions": "up to 300 μM"}, "human platelets [8]": {"system": "human platelets", "assay": "Ristocetin induced platelet aggregation", "assay_type": "cell-based", "conditions": "up to 300 μM"}, "human platelets [9]": {"system": "human platelets", "assay": "U46619 (thromboxane receptor agonist) induced platelet aggregation", "assay_type": "cell-based"}}, "data": [{"compound": "O=C([C@@H]1CCC(=O)N1Cc1ccccc1Br)N1CC2CC(CN(Cc3ccccc3)C2)C1", "note": "[Compound 1d, 5-(7-Benzyl-3,7-diaza-bicyclo[3.3.1]nonane-3-carbonyl)-1-(2-bromo-benzyl)-pyrrolidin-2-one]", "values": [{"measurement": "inhibition in vivo at 30 µM, 30 µmol/kg", "setting": "[1]; Mus musculus, po, 1 h, read-out: Protection (%)", "value": 40, "unit": "%"}, {"measurement": "protection in collagen-epinephrine induced pulmonary thromboembolism", "setting": "[1]; mice, after 4 hours (p.o.), 30 μM/kg", "value": "≤ 60", "unit": "%"}, {"measurement": "effect against CRP-XL induced platelet aggregation", "setting": "human platelets [2]", "value": "did not exhibit any significant effect"}, {"measurement": "coagulability of blood as assessed by TT, PT and aPTT", "setting": "human plasma", "value": "did not alter the coagulability of blood"}, {"measurement": "effect on bleeding tendency", "setting": "[3]; 1 hr after oral dosing, compared against aspirin and clopidogrel", "value": "mild effect"}, {"measurement": "bleeding time", "setting": "[3]; after 4 hrs (oral), method doses aspirin 170 μM/kg, Clopidogrel 70 μM/kg", "value": 8.4, "unit": "min"}, {"measurement": "inhibition of arachidonic acid induced platelet aggregation", "setting": "human platelets [4]; 30 μM", "value": "did not exhibit any inhibition"}, {"measurement": "attenuation of arachidonic acid induced platelet aggregation", "setting": "human platelets [4]; 300 μM and 500 μM", "value": "≤ 50", "unit": "%"}, {"measurement": "prolongation of time to occlusion vs control", "setting": "[5]; 4 hr after oral administration", "value": 2.2, "unit": "fold"}, {"measurement": "time to occlusion (TTO) of carotid artery", "setting": "[5]; 1d 4 hr after oral administration, control 9.5±0.4 min", "value": "19.2 ± 0.9", "unit": "min"}, {"measurement": "effect against ADP induced platelet aggregation", "setting": "human platelets [6]", "value": "did not exhibit any significant effect"}, {"measurement": "effect against TRAP induced platelet aggregation", "setting": "human platelets [7]", "value": "did not exhibit any significant effect"}, {"measurement": "effect against Ristocetin induced platelet aggregation", "setting": "human platelets [8]", "value": "did not exhibit any significant effect"}, {"measurement": "inhibition at 30 µM", "setting": "human platelets [9]", "value": "75.5 ± 6", "unit": "%"}]}]}
